We go through 15 compounds from patent US6187787A, “Bis(9-aminoacridine) DNA intercalating agents having antitumor activity” (Trustees of Dartmouth College, priority 2000, dated 2001).

One assay deals with calf thymus DNA. The assay is described as follows: Thermal denaturation studies on calf thymus DNA. Type of assay: binding. Particulars: increase of denaturation temperature. As for the experimental part:
Thermal denaturation studies were performed on calf thymus DNA. Addition of the compounds of the present invention to the calf thymus DNA caused the denaturation temperature to increase approximately 11° C. (see Table 1).
On to `CC(C)(c1ccc(Oc2ccc(Nc3c4ccccc4nc4ccccc34)cc2)cc1)c1ccc(Oc2ccc(Nc3c4ccccc4nc4ccccc34)cc2)cc1`, for which the ΔTm stood at 11.6 ± 0.4 °C.

For the compound `CC(C)(c1ccc(Nc2c3ccccc3nc3ccccc23)cc1)c1ccc(C(C)(C)c2ccc(Nc3c4ccccc4nc4ccccc34)cc2)cc1`, the ΔTm came to 10.9 ± 0.31 °C.

On to `c1ccc2c(NC3CCC(CC4CCC(Nc5c6ccccc6nc6ccccc56)CC4)CC3)c3ccccc3nc2c1` (centres unmarked), for which the ΔTm is 25.9 ± 4.1 °C.

In the next assay the test system is L1210 murine leukemia cells. The assay is described as follows: Cytotoxicity in the murine leukemia cell line L1210 (growth inhibition, 72 hours). Type of assay: cell-based. Particulars: Mus musculus, L1210, 72 h, read-out: ID50. The procedure:
Using the methodologies disclosed by Jaycox et al. J. Heterocyclic. […] A number of intercalating agents currently in clinical use for treatment of cancer were also evaluated in this assay for comparison.
L1210 murine leukemia cells were routinely maintained as suspension cultures in McCoy's 5A medium supplemented with 10% horse serum, glutamine, penicillin, and streptomycin and grown in a humidified environment of 10% carbon dioxide and 90% air at 37° C. Compounds were dissolved in dimethyl sulfoxide (DMSO) and 40 μg was added to 4 ml of L1210 cells (10^5 cells/tube) to attain final drug concentrations of 0.01, 0.1 and 10 μg/ml of culture. After 72 hours of continuous exposure to the drug, the cell concentration was determined by a Coulter counter (Model ZBF, Hialeah, Fla.). Growth inhibition was calculated for each drug concentration using the following formula:
% growth inhibition=(1-A)×100, wherein A=[cell # treated/cell # in
The growth inhibition data were then used to calculate the ID50 value (the calculated drug concentration required to inhibit cell growth by 50% of control).
As for `Cn1cc(NC(=O)c2cc(NC(=O)c3cc(NC=O)cn3C)cn2C)cc1C(=O)NCCC(=N)N` [distamycin-A, reference compound], the IC50 worked out at 6000 nM.

With `CC[n+]1c(-c2ccccc2)c2cc(N)ccc2c2ccc(N)cc21` [ethidium bromide, reference compound], the IC50 was 4100 nM.

Still in this assay, the particulars now being: Mus musculus; L1210 murine leukemia; 72 hours of continuous exposure; concentration which inhibits growth of 50% of the cells; read-out: ID50 (the source's name).
Turning to `CC(C)(c1ccc(Oc2ccc(Nc3c4ccccc4nc4ccccc34)cc2)cc1)c1ccc(Oc2ccc(Nc3c4ccccc4nc4ccccc34)cc2)cc1`, the IC50 stood at 5400 nM.

On to `Nc1c2ccccc2nc2ccccc12` [9-aminoacridine], for which the IC50 turned out to be 2300 nM.

Take `c1ccc2c(N[C@H]3CC[C@@H](C[C@H]4CC[C@@H](Nc5c6ccccc6nc6ccccc56)CC4)CC3)c3ccccc3nc2c1`: the IC50 stood at 440 nM.

In the case of `c1cc(Nc2c3ccccc3nc3ccccc23)cc(Oc2cccc(Oc3cccc(Nc4c5ccccc5nc5ccccc45)c3)c2)c1`, the IC50 came to 5900 nM.

Regarding `Cc1cc2cccnc2c2ncccc12` [5-methyl-1,10-phenanthroline, reference compound], the IC50 amounted to 2000 nM.

Consider `Cc1c2ccncc2c(C)c2c1[nH]c1ccccc12` [ellipticine, reference compound], for which the IC50 is 530 nM.

With `c1ccc2c(N[C@H]3CC[C@@H](C[C@H]4CC[C@H](Nc5c6ccccc6nc6ccccc56)CC4)CC3)c3ccccc3nc2c1`, the IC50 came to 560 nM.

As for `c1ccc2c(N[C@H]3CC[C@H](C[C@H]4CC[C@H](Nc5c6ccccc6nc6ccccc56)CC4)CC3)c3ccccc3nc2c1`, the IC50 came out at 500 nM.

Turning to `CC(C)(c1ccc(Nc2c3ccccc3nc3ccccc23)cc1)c1ccc(C(C)(C)c2ccc(Nc3c4ccccc4nc4ccccc34)cc2)cc1`, the IC50 is more than 13000 nM.

The next assay deals with DNA.
Assay: not given
Particulars: DNA binding characteristics of acridine dimers, Le Pecq et al. 1975; cited from earlier work.
Take `COc1ccc2nc3cc(Cl)ccc3c(NCCCNCCCNc3c4ccc(Cl)cc4nc4ccc(OC)cc34)c2c1` [III]: the “mode of intercalation (bis- or monofunctional)” value (“mode of intercalation” for short) is given as “only one of the two rings of the dimer with the shortest chain (III) of 9 angstroms was intercalated”.

As for `COc1ccc2nc3cc(Cl)ccc3c(NCCCCNCCCNc3c4ccc(Cl)cc4nc4ccc(OC)cc34)c2c1` [IIB], the “mode of intercalation” value is “bisintercalated”.

Turning to `COc1ccc2nc3cc(Cl)ccc3c(NCCCNCCCCNCCCNc3c4ccc(Cl)cc4nc4ccc(OC)cc34)c2c1` [IIA], the “mode of intercalation” value is on record as “bisintercalated”.
